# Measured values: patent US12173088B2, “Anti-microbial peptides” (priority 2018, dated 2024)
# Read-outs that look alike come from different tables or passages of the source. Peptide text beside a SMILES is read from it.
# Columns and labels:
# [1] = system: S. aureus M838-17 (MRSA); test: microbe, parasite or virus in culture; type: cell-based, Staphylococcus aureus; details: M838-17
# In short: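 Peptides were serially diluted two-fold against bacteria grown in tryptic soy broth to log phase (OD600 ≈0.5), then seeded at OD600 0.001. Plates were held overnight at 37° C and read at 630 nm. USA300 was also tested at pH 6.8, 7.2 and 8.0, with 150 mM NaCl or 5-10% serum, plasma or peritoneal fluid.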
# [2] = Hemolytic assay; type: cell-based, human; details: human, human red blood cells, 2% (v/v)
# In short: (§1)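 HL50 marks the peptide level lysing half of a 2% (v/v) suspension of washed human erythrocytes after 1 h at 37 °C. Released hemoglobin measured at 545 nm, scaled between PBS (0%) and Triton X-100 (2% or 1%; 100%). Selectivity index computed as HL50 over MIC.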
# [3] = system: P. aeruginosa E411-17; test: microbe, parasite or virus in culture; type: cell-based, Pseudomonas aeruginosa; details: for MIC P. aeruginosa 411-17: E411-17; for MIC: Table 14, read-out: MIC P. aeruginosa E411-17
# Text: (§2) The bacterial strains used include the Gram-positive strains Staphylococcus aureus USA300 LAC, S. epidermidis 1457, and Bacillus subtilis 168, as well as the Gram-negative isolates Escherichia coli K12 and Acinetobacter baumannii B2367-12. Additional, drug resistance strains include Gram-positive Enterococcus faecium V286-17 (VRE) and S. aureus M838-17 (MRSA) and Gram-negative E. coli E423-17, E. coli E416-17 (ampC), and P. aeruginosa E411-17. Bacteria were cultivated in tryptic soy broth (TSB) (BD Bioscience, MD).
# (§3) The antibacterial activity of peptides was evaluated using a standard broth microdilution protocol with minor modifications as described (Mishra, et al. (2012) J. Am. Chem. Soc., 134:12426-12429). In brief, logarithmic phase bacterial cultures (i.e., optical density at 600 nm≈0.5) were diluted to OD600 0.001 and partitioned into a 96-well polystyrene microplate at 90 μL per well. After treatment with 10 μL of peptide solutions two fold diluted to various concentrations, microplates were incubated at 37° C. overnight and read on a ChroMate® 4300 Microplate Reader at 630 nm (GMI, Ramsey, MN). […] To study the influence of medium conditions on the antimicrobial activity of peptides against S. aureus USA300, up to 200 mM sodium chloride (NaCl), 2 mM of calcium chloride, 5-10% of human serum, mouse plasma, fluid, or supernatants of tissue homogenates were included into the assays.
# (§4) The bacterial strains used include the Gram-positive bacteria methicillin-resistant Staphylococcus aureus USA300, Enterococcus faecium V286-17 (VRE), S. aureus M838-17 (MRSA) and Gram-negative bacteria E. coli E423-17, E416-7 (ampC), P. aeruginosa E411-17, PA01, K. pneumoniae E406-17, ATCC13883, and A. baumannii B26-16. Bacteria were cultivated in tryptic soy broth (TSB) from BD Bioscience.
# (§5) The antibacterial activity of peptides was evaluated using a standard broth microdilution protocol with minor modifications (Mishra, et al. (2017) Acta Biomater., 49:316-328). In brief, logarithmic phase bacterial cultures (i.e., optical density at 600 nm≈0.5) were diluted to 0.001 OD and aliquoted 90 μL per well into a 96-well polystyrene microplate. Added 10 μL peptides per well with various concentrations, plates were incubated at 37° C., overnight. Post incubation the plates are read at 630 nm using a ChroMate® Microplate Reader (GMI). […] To study the influence of medium conditions on the antimicrobial activity of peptides against S. aureus USA300 at different pHs (6.8, 7.2, and 8.0), 150 mM sodium chloride (NaCl), 5-10% of human serum, mouse plasma, and peritoneal fluid were included into the assays.
# [4] = system: K. pneumoniae E406-17; test: microbe, parasite or virus in culture; type: cell-based, Klebsiella pneumoniae; details: for MIC K. pneumonia 406-17: E406-17; for MIC: Table 14, read-out: MIC K. pneumoniae E406-17
# Procedure: as §3, §4, §5
# [5] = system: S. aureus USA300; test: microbe, parasite or virus in culture; type: cell-based, Staphylococcus aureus; details: for MIC S. aureus USA 300: quantified by UV
# In short: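 Broth microdilution: log-phase cultures in tryptic soy broth diluted to OD600 0.001, exposed to two-fold diluted peptides at 37° C overnight, growth read at 630 nm. Medium effects on S. aureus USA300 tested with up to 200 mM NaCl, 2 mM CaCl2, 5-10% human serum, mouse plasma, fluids or tissue homogenate supernatants.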
# [6] = system: E. faecium V286-17 (VRE); test: microbe, parasite or virus in culture; type: cell-based, Enterococcus faecium; details: Table 14, read-out: MIC E. faecium V286-17 (VRE)
# Text: as §2, §3, §4, §5
# [7] = system: E. coli E423-17; test: microbe, parasite or virus in culture; type: cell-based, Escherichia coli; details: Table 14, read-out: MIC E. coli E423-17
# Text: as §2, §3, §4, §5
# [8] = system: A. baumannii B26-16; test: microbe, parasite or virus in culture; type: cell-based, Acinetobacter baumannii; details: Table 14, read-out: MIC A. baumannii B26-16
# Procedure: as §4, §5
# [9] = system: P. aeruginosa PAO1; type: cell-based, Pseudomonas aeruginosa
# In short: (§6)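 Broth microdilution in tryptic soy broth: log-phase cultures (OD600 ≈0.5) diluted to OD600 0.001, given two-fold peptide dilutions, incubated overnight at 37° C. Growth read at 630 nm.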
# [10] = system: E. coli ATCC 25922; type: cell-based, Escherichia coli
# In short: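 Peptides, serially diluted two-fold, were incubated overnight at 37 °C with E. coli ATCC 25922 from log-phase cultures adjusted to OD600 0.001. Turbidity at 630 nm served as the read-out in this broth microdilution format.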
# [11] = system: K. pneumoniae ATCC 13883; type: cell-based, Klebsiella pneumoniae; details: quantified by UV
# In short: as §6
# [12] = system: human red blood cells (hRBCs); test: Hemolytic assay; type: cell-based
# In short: as §1
# [13] = system: Klebsiella pneumoniae clinical strains; test: microbe, parasite or virus in culture; details: Klebsiella pneumoniae
# Procedure: as §5
# [14] = Table 4, quantitated based on weight
compound,measurement,setting,value
"CC(C)C[C@H](NC(=O)[C@H](Cc1c[nH]c2ccccc12)NC(=O)[C@H](Cc1c[nH]c2ccccc12)NC(=O)[C@H](Cc1c[nH]c2ccccc12)NC(=O)[C@H](Cc1c[nH]c2ccccc12)NC(=O)[C@H](CCCNC(=N)N)NC(=O)[C@H](CCCNC(=N)N)NC(=O)[C@@H](N)CCCNC(=N)N)C(N)=O [WW306, RRRWWWWL] (H-RRRWWWWL-NH2; N-terminus and C-terminus assumed)",MIC S. aureus M838-17,[1],3.1 µM
same,HC50 at 1 h,[2],60 µM
same,MIC P. aeruginosa 411-17,[3],6.25 µM
same,MIC K. pneumonia 406-17,[4],6.25 µM
"C[C@H](NC(=O)[C@H](Cc1c[nH]c2ccccc12)NC(=O)[C@H](Cc1c[nH]c2ccccc12)NC(=O)[C@H](Cc1c[nH]c2ccccc12)NC(=O)[C@H](Cc1c[nH]c2ccccc12)NC(=O)[C@H](CCCNC(=N)N)NC(=O)[C@H](CCCNC(=N)N)NC(=O)[C@@H](N)CCCNC(=N)N)C(N)=O [WW308, RRRWWWWA] (H-RRRWWWWA-NH2; N-terminus and C-terminus assumed)",MIC S. aureus M838-17,[1],12.5 µM
same,HC50 at 1 h,[2],> 200 µM
same,MIC P. aeruginosa 411-17,[3],25 µM
same,MIC K. pneumonia 406-17,[4],>50 µM
Colistin [reference compound],MIC,"[5]; Table 14, read-out: MIC S. aureus USA300 (MRSA)",>8 µM
same,MIC,[6],>8 µM
same,MIC,[3],2 µM
same,MIC,[4],>8 µM
same,MIC,[7],1 µM
same,MIC,[8],1 µM
"CC(C)C[C@H](NC(=O)[C@H](Cc1c[nH]c2ccccc12)NC(=O)[C@H](Cc1c[nH]c2ccccc12)NC(=O)[C@H](Cc1c[nH]c2ccccc12)NC(=O)[C@H](CCCNC(=N)N)NC(=O)[C@H](CCCNC(=N)N)NC(=O)[C@H](CCCNC(=N)N)NC(=O)[C@@H](N)CCCNC(=N)N)C(N)=O [WW309, RRRRWWWL] (H-RRRRWWWL-NH2; N-terminus and C-terminus assumed)",MIC S. aureus M838-17,[1],6.25 µM
same,HC50 at 1 h,[2],> 200 µM
same,MIC P. aeruginosa 411-17,[3],12.5 µM
same,MIC K. pneumonia 406-17,[4],>50 µM
"CC(C)C[C@H](NC(=O)[C@H](CC(C)C)NC(=O)[C@H](CCCCN)NC(=O)CNC(=O)[C@H](CC(C)C)NC(=O)[C@H](CC(C)C)NC(=O)[C@H](CO)NC(=O)[C@H](CC(C)C)NC(=O)[C@H](CC(C)C)NC(=O)[C@H](CO)NC(=O)[C@H](CC(C)C)NC(=O)[C@H](CC(C)C)NC(=O)CN)C(N)=O [DFTamP1, GLLSLLSLLGKLL] (H-GLLSLLSLLGKLL-NH2; N-terminus assumed)",MIC,[5]; 1 mM Ca2+,0.78 µM
same,MIC,[5]; 2 mM Ca2+,0.78 to 1.56 µM
same,MIC,[5]; 50 mM NaCl,0.78 µM
same,MIC,[5]; 100 mM NaCl,0.78 µM
same,MIC,[5]; 200 mM NaCl,0.78 µM
same,MIC,"[5]; Human serum (5%), Table 5",12.5 µM
same,MIC,"[5]; Murine plasma (5%), Table 5",6.2^ 2 μM
same,MIC,"[5]; NaCl (150 mM), Table 5",3.1 to 6.2 µM
same,MIC,"[5]; No salts added, Table 6, by UV",0.78 µM
same,MIC S. aureus USA 300,"[5]; Table 2, peptides amidated",0.78 µM
same,MIC S. aureus USA 300,[5]; Table 3,0.78 µM
same,MIC SA (S. aureus USA300),[5]; [14],3.1 µM
same,MIC,"[5]; pH 6.8, Table 5, by weight",6.2 µM
same,MIC,"[5]; pH 7.4, Table 5",3.1 µM
same,MIC,"[5]; pH 8.0, Table 5",3.1 µM
same,MIC P. aeruginosa PAO1,"[9]; Table 2, quantified by UV",>25 µM
same,MIC PA (P. aeruginosa PAO1),[9]; [14],>25 µM
same,MIC E. coli ATCC 25922,"[10]; Table 2, quantified by UV",>25 µM
same,MIC EC (E. coli ATCC 25922),[10]; [14],>25 µM
same,MIC K. pneumoniae,[11]; Table 2,>25 µM
same,MIC K. pneumonia ATCC 13883,[11]; Table 3,>25 µM
same,HC50 at 1 h,"[2]; Table 4, quantitated based on weight, read-out: HL50, peptide concentration for 50% hemolysis",10 µM
same,HL50,"[12]; Table 2, lysis of 50% hRBCs (2% v/v)",<3.1 µM
same,HL50,"[12]; Table 3, hRBCs 2% v/v",<3.1 µM
"NC[C@H]1O[C@H](O[C@H]2[C@H](O)[C@@H](O[C@H]3O[C@H](CO)[C@@H](O)[C@H](N)[C@H]3O)[C@H](N)C[C@@H]2N)[C@H](N)C[C@@H]1O [Tobramycin, reference compound]",MIC,"[5]; Staphylococcus aureus, MRSA / USA300, Table 14, read-out: MIC S. aureus USA300 (MRSA)",4 µM
same,MIC,"[6]; Enterococcus faecium, VRE",> 8 µM
same,MIC,"[3]; Pseudomonas aeruginosa, E41117",2 µM
same,MIC,"[4]; Klebsiella pneumoniae, E40617",> 8 µM
same,MIC,"[7]; Escherichia coli, E42317",8 µM
same,MIC,"[8]; Acinetobacter baumannii, B2616",4 µM
same,MIC,[13]; strain KP-231-18,64 µM
same,MIC,[13]; strain KP-232-18,> 64 µM
same,MIC,[13]; strain KP-245-18,4 to 8 µM
same,MIC,[13]; strain KP-249-18,8 µM
same,MIC,[13]; strain KP-253-18,8 µM
same,MIC,[13]; strain KP-256-18,> 64 µM
same,MIC,[13]; strain KP-257-18,> 64 µM
same,MIC,[13]; strain KP-262-18,4 µM
same,MIC,[13]; strain KP-270-18,16 µM
same,MIC,[13]; strain KP-B42-15,8 µM
same,MIC,[13]; strain KP-B53-15,4 µM
same,MIC,[13]; strain KP-B73-15,4 µM
same,MIC,[13]; strain KP-B77-15,4 µM
same,MIC,[13]; strain KP-B1725-18,8 µM
